In the supplement of paper PMC10307832:

Experiments:
Assay in all cases: relative viability (nuclei count vs DMSO), 5 days (fraction); higher = more cells survive
[1] = tested on: EMC-BAC-2
In short: (§1)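 A single step with final 0.05% Triton X-100, 1% formaldehyde and 1 ug/ml Hoechst fixed the cells and stained nuclei 5 days after treatment. Lung cancer cell lines in 1536-well plates had been treated by pin tool the day after seeding with one drug alone or a fixed anchor-drug dose plus five library-drug doses (not always all listed) in √10 steps, and nuclei were counted on 4× images. Relative viability is the ratio of nuclei in treated wells to nuclei in vehicle wells, taken as the median of duplicate plates.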

[2] = tested on: NCI-H1437
In short: as §1

[3] = tested on: NCI-H1395
In short: as §1

[4] = tested on: CAL-12T
In short: as §1

[5] = tested on: NCI-H2009
In short: as §1

[6] = tested on: EKVX
In short: as §1

[7] = tested on: LCLC-97TM1
In short: as §1

[8] = tested on: SW 900
In short: as §1

[9] = tested on: NCI-H522
In short: as §1

[10] = tested on: LOU-NH91
In short: as §1

[11] = tested on: NCI-H727
In short: as §1

[12] = tested on: NCI-H596
In short: as §1

[13] = tested on: HCC-78
In short: as §1

[14] = tested on: NCI-H2023
In short: as §1

[15] = tested on: NCI-H2170
In short: as §1

[16] = tested on: LK-2
In short: as §1

[17] = tested on: NCI-H1650
In short: as §1

[18] = tested on: BEN
In short: as §1

[19] = tested on: HCC-827
In short: as §1

[20] = tested on: UMC-11
In short: as §1

[21] = tested on: SK-LU-1
In short: as §1

[22] = tested on: NCI-H1755
In short: as §1

[23] = tested on: EPLC-272H
In short: as §1

[24] = tested on: PC-14
In short: as §1

## Nc1cccc2c1CN(C1CCC(=O)NC1=O)C2=O (stereo not drawn) [Lenalidomide] + CC(=O)Nc1cccc(-n2c(=O)n(C3CC3)c(=O)c3c(Nc4ccc(I)cc4F)n(C)c(=O)c(C)c32)c1 [Trametinib] (partner 0.02 µM)
[1]; first compound 0.253 µM
  relative viability: 0.888
[1]; first compound 0.8 µM
  relative viability: 0.848
[1]; first compound 2.53 µM
  relative viability: 0.922
[1]; first compound 8 µM
  relative viability: 0.747
[2]; first compound 0.253 µM
  relative viability: 0.523
[2]; first compound 0.8 µM
  relative viability: 0.365
[2]; first compound 2.53 µM
  relative viability: 0.611
[2]; first compound 8 µM
  relative viability: 0.486
[3]; first compound 0.253 µM
  relative viability: 0.988
[3]; first compound 2.53 µM
  relative viability: 1.1
[3]; first compound 8 µM
  relative viability: 0.929
[4]; first compound 0.253 µM
  relative viability: 0.371
[4]; first compound 0.8 µM
  relative viability: 0.292
[4]; first compound 2.53 µM
  relative viability: 0.431
[4]; first compound 8 µM
  relative viability: 0.306
[5]; first compound 0.253 µM
  relative viability: 0.297
[5]; first compound 0.8 µM
  relative viability: 0.28
[5]; first compound 2.53 µM
  relative viability: 0.283
[5]; first compound 8 µM
  relative viability: 0.28
[6]; first compound 0.253 µM
  relative viability: 0.391
[6]; first compound 0.8 µM
  relative viability: 0.32
[6]; first compound 2.53 µM
  relative viability: 0.432
[6]; first compound 8 µM
  relative viability: 0.328
[7]; first compound 0.253 µM
  relative viability: 0.183
[7]; first compound 0.8 µM
  relative viability: 0.239
[7]; first compound 2.53 µM
  relative viability: 0.212
[7]; first compound 8 µM
  relative viability: 0.159
[8]; first compound 2.53 µM
  relative viability: 1
[8]; first compound 8 µM
  relative viability: 0.76
[9]; first compound 0.253 µM
  relative viability: 0.813
[9]; first compound 0.8 µM
  relative viability: 0.803
[9]; first compound 2.53 µM
  relative viability: 0.725
[9]; first compound 8 µM
  relative viability: 0.623
[10]; first compound 0.253 µM
  relative viability: 0.786
[10]; first compound 0.8 µM
  relative viability: 0.78
[10]; first compound 2.53 µM
  relative viability: 0.771
[10]; first compound 8 µM
  relative viability: 0.679
[11]; first compound 0.253 µM
  relative viability: 0.383
[11]; first compound 0.8 µM
  relative viability: 0.378
[11]; first compound 2.53 µM
  relative viability: 0.35
[11]; first compound 8 µM
  relative viability: 0.376
[12]; first compound 0.253 µM
  relative viability: 0.73
[12]; first compound 0.8 µM
  relative viability: 0.83
[12]; first compound 2.53 µM
  relative viability: 0.938
[12]; first compound 8 µM
  relative viability: 0.766
[13]; first compound 0.253 µM
  relative viability: 0.728
[13]; first compound 0.8 µM
  relative viability: 0.633
[13]; first compound 2.53 µM
  relative viability: 0.692
[13]; first compound 8 µM
  relative viability: 0.822
[14]; first compound 0.253 µM
  relative viability: 0.554
[14]; first compound 0.8 µM
  relative viability: 0.584
[14]; first compound 2.53 µM
  relative viability: 0.444
[14]; first compound 8 µM
  relative viability: 0.504
[15]; first compound 0.253 µM
  relative viability: 0.933
[15]; first compound 0.8 µM
  relative viability: 0.886
[15]; first compound 2.53 µM
  relative viability: 0.954
[15]; first compound 8 µM
  relative viability: 0.823
[16]; first compound 0.253 µM
  relative viability: 0.772
[16]; first compound 0.8 µM
  relative viability: 0.747
[16]; first compound 2.53 µM
  relative viability: 0.746
[16]; first compound 8 µM
  relative viability: 0.717
[17]; first compound 0.253 µM
  relative viability: 0.421
[17]; first compound 0.8 µM
  relative viability: 0.432
[17]; first compound 2.53 µM
  relative viability: 0.551
[17]; first compound 8 µM
  relative viability: 0.684
[18]; first compound 0.253 µM
  relative viability: 1.1
[18]; first compound 0.8 µM
  relative viability: 1.07
[18]; first compound 2.53 µM
  relative viability: 1.18
[18]; first compound 8 µM
  relative viability: 0.913
[19]; first compound 0.253 µM
  relative viability: 0.462
[19]; first compound 0.8 µM
  relative viability: 0.594
[19]; first compound 2.53 µM
  relative viability: 0.518
[19]; first compound 8 µM
  relative viability: 0.52
[20]; first compound 0.253 µM
  relative viability: 0.514
[20]; first compound 0.8 µM
  relative viability: 0.449
[20]; first compound 2.53 µM
  relative viability: 0.885
[20]; first compound 8 µM
  relative viability: 0.472
[21]; first compound 0.253 µM
  relative viability: 0.515
[21]; first compound 0.8 µM
  relative viability: 0.443
[21]; first compound 2.53 µM
  relative viability: 0.596
[21]; first compound 8 µM
  relative viability: 0.432
[22]; first compound 0.253 µM
  relative viability: 0.729
[22]; first compound 0.8 µM
  relative viability: 0.806
[22]; first compound 2.53 µM
  relative viability: 0.766
[22]; first compound 8 µM
  relative viability: 0.63
[23]; first compound 0.253 µM
  relative viability: 0.284
[23]; first compound 0.8 µM
  relative viability: 0.272
[23]; first compound 2.53 µM
  relative viability: 0.34
[23]; first compound 8 µM
  relative viability: 0.313
[24]; first compound 0.253 µM
  relative viability: 0.839
[24]; first compound 0.8 µM
  relative viability: 0.722
[24]; first compound 2.53 µM
  relative viability: 0.981
[24]; first compound 8 µM
  relative viability: 0.779
